Measurements reported in ChEMBL document CHEMBL1201862, “PubChem BioAssay data set” (2004).
Activity calls are given as the source filed them.

Key:
[1] = molecular target: Eukaryotic translation initiation factor 4E (Mus musculus, UniProt P63073); experiment: eIF4E–eIF4G protein interaction inhibitors, dose response, biochemical, TR-FRET (AID 855); format: functional;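 also: potency for disrupting eIF4E binding to eIF4GI seen as loss of FRET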
[2] = test system: A549; experiment: A549 cell toxicity, dose response, cytotoxicity control, plate reader, cherry-pick samples (AID 687028); format: functional, cell-based; conditions: Homo sapiens
[3] = test system: HEK293; experiment: NOD1 signaling inhibitors, primary screen, cell-based, luminescence, uHTS (AID 1578); format: functional; conditions: Homo sapiens
[4] = test system: HEK293; experiment: cells; format: functional, cell-based; conditions: Homo sapiens
[5] = molecular target: T1, Heat shock factor protein 1 (Mus musculus, UniProt P38532); experiment: inhibition of MG132-induced HSE-luciferase signal, confirmation, cell-based, NIH3T3, luminescence, dose retest (AID 2382); format: functional;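 also: NIH3T3 fibroblasts with HSF1-driven luciferase reporter stressed by proteasome inhibitor MG132; luminescence from HSF1-driven luciferase expression after 8 hours of MG132 stress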
T1 sequence (P38532 whole entry): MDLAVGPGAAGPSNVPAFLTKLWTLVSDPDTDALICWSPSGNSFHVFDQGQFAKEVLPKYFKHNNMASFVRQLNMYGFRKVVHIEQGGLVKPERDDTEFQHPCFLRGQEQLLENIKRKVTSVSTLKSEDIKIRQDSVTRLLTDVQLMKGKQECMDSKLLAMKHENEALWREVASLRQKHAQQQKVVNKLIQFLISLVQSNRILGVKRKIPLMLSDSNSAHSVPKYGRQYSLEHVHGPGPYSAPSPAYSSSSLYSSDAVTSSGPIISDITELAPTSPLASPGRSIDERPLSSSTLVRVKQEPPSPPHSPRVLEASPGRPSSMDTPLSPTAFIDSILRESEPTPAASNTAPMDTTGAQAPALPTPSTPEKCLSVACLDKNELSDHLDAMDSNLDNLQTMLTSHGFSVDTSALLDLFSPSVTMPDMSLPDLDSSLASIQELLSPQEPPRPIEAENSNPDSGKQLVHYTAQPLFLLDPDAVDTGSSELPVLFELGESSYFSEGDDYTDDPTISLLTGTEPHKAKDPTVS

[6] = test system: HEK293; experiment: cells; format: functional, cell-based; conditions: Homo sapiens; remark: listed apart in the source
[7] = molecular target: Nucleotide-binding oligomerization domain-containing protein 2 (Homo sapiens, UniProt Q9HC29); experiment: NOD2 signaling inhibitors, cell-based, luminescence, uHTS, HEK293 (AID 1566); format: functional
[8] = test system: HEK293; experiment: NOD2 signaling inhibitors in MDP-stimulated cells, cell-based, uHTS, luminescence (AID 2001); format: functional; conditions: Homo sapiens
[9] = test system: HEK293; experiment: cells; format: functional, cell-based; conditions: Homo sapiens; remark: listed apart in the source
[10] = molecular target: T2, Protein skinhead-1 (Caenorhabditis elegans, UniProt P34707); format: functional
T2 sequence (P34707 whole entry): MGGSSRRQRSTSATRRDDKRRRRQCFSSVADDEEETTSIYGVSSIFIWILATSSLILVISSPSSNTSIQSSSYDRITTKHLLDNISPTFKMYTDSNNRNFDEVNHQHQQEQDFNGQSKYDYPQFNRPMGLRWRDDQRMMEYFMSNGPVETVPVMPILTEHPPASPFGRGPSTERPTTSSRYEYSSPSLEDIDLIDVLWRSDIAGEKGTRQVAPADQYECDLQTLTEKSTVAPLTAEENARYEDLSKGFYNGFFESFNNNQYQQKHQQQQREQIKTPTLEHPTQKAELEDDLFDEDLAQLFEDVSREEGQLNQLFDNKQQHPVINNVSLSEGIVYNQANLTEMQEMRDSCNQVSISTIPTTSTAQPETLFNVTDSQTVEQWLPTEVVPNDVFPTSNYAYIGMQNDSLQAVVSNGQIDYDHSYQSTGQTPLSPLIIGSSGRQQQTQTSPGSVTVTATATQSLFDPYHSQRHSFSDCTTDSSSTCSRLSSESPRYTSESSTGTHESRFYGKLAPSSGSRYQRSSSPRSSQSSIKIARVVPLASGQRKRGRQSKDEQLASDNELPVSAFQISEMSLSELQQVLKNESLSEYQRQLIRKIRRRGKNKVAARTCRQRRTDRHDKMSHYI

[11] = molecular target: Paired box protein Pax-8 (Homo sapiens, UniProt Q06710); experiment: inhibitors of PAX8-driven TPO luciferase reporter, dose response, RMG-I cells, cherry-pick (AID 687027); format: functional, cell-based;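 also: luciferase reporter driven by Pax8 target thyroperoxidase promoter measured by SteadyGlo luminescence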
[12] = A549 cell cytotoxicity, dose response, cytotoxicity control, plate reader, cherry-pick, antagonist series (AID 743412); format: functional, cell-based
[13] = HepG2 cell cytotoxicity, dose response, cytotoxicity control, plate reader, cherry-pick, antagonist series (AID 743416); format: functional, cell-based
[14] = LGR2 antagonists, dose response, cell-based, HEK293, CRE-luciferase reporter, cherry pick, set 2 (AID 743343); format: functional;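 also: transfected cells were stimulated with diluted bursicon conditioned medium after compound addition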
[15] = non-specific cell cytotoxicity, dose response, cytotoxicity control for PAX8 inhibitor project, plate reader, dry powder samples (AID 743021); format: functional, cell-based
[16] = MC4R antagonists, dose response, counter-screen for LGR2 antagonist project, cell-based, plate reader, cherry pick (AID 743444); format: functional;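 also: transfected HEK 293 cells stimulated with alpha-MSH peptide; potency of inhibitors of the alpha-MSH evoked signal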
[17] = HEK293 cell cytotoxicity, dose response, cytotoxicity control, plate reader, cherry-picked samples (AID 743446); format: functional, cell-based
[18] = molecular target: Major prion protein (Homo sapiens, UniProt P04156); format: functional, cell-based
[19] = cells
[20] = molecular target: Long-chain-fatty-acid--AMP ligase FadD28 (Mycobacterium tuberculosis, UniProt P9WQ59); experiment: Fluorescence polarization aasay to screen for inhibitors that compete for the binding of FadD28 to a bisubstrate Measured in Biochemical System Using Plate Reader - 2147-01_Inhibitor_Dose_CherryPick_Activity.; format: functional, Mycobacterium tuberculosis H37Rv
[21] = cells; remark: listed apart in the source
[22] = molecular target: Fructose-bisphosphate aldolase (Mycobacterium tuberculosis, UniProt P9WQA3); experiment: Fluorescence-based biochemical high throughput dose response assay for inhibitors of the fructose-bisphosphate aldolase (FBA) of M. tuberculosis.; format: functional
[23] = molecular target: T3, Methionyl-tRNA synthetase, putative (Trypanosoma brucei brucei, UniProt Q38C91); format: functional, Trypanosoma brucei brucei strain 927/4 GUTat10.1
T3 sequence (Q38C91 whole entry): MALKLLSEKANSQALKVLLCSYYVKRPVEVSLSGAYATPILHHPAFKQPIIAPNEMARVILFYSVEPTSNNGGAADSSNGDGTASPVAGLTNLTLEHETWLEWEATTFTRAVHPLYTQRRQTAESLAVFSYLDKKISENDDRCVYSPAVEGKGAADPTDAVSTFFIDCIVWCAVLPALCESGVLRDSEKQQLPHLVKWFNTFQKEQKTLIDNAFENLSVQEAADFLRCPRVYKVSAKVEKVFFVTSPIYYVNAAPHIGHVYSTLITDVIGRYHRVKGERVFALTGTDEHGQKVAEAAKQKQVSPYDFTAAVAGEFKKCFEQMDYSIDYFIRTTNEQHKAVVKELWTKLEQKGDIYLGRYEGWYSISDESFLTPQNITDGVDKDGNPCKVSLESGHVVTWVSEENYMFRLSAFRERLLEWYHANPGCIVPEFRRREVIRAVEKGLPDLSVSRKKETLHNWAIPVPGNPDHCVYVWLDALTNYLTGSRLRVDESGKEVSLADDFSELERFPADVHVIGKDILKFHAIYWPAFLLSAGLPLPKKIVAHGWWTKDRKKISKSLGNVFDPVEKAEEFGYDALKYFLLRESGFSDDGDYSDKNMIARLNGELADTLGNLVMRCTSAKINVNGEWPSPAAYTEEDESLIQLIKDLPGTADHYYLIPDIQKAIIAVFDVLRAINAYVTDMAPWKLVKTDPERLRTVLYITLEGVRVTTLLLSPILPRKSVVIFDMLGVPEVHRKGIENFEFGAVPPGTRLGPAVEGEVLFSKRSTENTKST

[24] = Counterscreen for inhibitors of Trypanosoma brucei methionyl tRNA synthetase (MetRS): Luminescence-based cell-based high throughput dose response assay to identify compounds that are cytotoxic to Jurkat human T lymphocyte cells.; format: functional
[25] = molecular target: T3, Methionyl-tRNA synthetase, putative; format: functional, Trypanosoma brucei brucei strain 927/4 GUTat10.1; remark: listed apart in the source
[26] = molecular target: Luciferin 4-monooxygenase (Photinus pyralis, UniProt P08659); experiment: firefly luciferase enzyme inhibitors, dose response, biochemical, luminescence (AID 1891)
[27] = Luminescence Cell-Based Dose Confirmation HTS to Identify Inhibitors of Platelet Dense Granule Release. [Related pubchem assays: 1663 (Primary HTS), 1678 (Summary of Project)]; format: functional
[28] = molecular target: T4, Oxysterols receptor LXR-beta (Homo sapiens, UniProt P55055); format: functional, cell-based;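 also: agonist activity at LXR measured by a cell-based luminescence readout across a dose range, run as a counterscreen for daf-12 agonists; HEK293 cells with Gal4-LXR fusion and GAL4-driven luciferase reporter; potency for activation of Gal4-LXR reporter so compounds are agonists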
T4 sequence (P55055 whole entry): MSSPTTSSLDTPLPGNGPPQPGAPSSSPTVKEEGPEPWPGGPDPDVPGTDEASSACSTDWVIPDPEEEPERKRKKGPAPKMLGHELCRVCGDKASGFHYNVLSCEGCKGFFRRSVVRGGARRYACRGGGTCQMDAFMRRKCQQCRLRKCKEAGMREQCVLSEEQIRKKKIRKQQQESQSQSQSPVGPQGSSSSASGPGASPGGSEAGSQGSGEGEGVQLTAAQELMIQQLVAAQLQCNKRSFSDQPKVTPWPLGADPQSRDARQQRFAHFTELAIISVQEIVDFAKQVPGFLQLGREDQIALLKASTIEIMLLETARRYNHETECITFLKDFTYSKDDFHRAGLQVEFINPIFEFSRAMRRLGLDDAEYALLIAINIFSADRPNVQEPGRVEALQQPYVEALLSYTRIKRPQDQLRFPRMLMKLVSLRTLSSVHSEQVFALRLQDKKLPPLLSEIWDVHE

[29] = HEK293 cell viability, dose response, counter-screen for EBV LMP1 inhibitor project, dry powder, set 2 (AID 624374); format: functional
[30] = HeLa cell cytotoxicity, dose response, cytotoxicity control for MgcRacGAP inhibitor project (AID 624300); format: functional
[31] = molecular target: T5, Rac GTPase-activating protein 1 (Homo sapiens, UniProt Q9H0H5); experiment: MgcRacGAP GTPase-activating activity inhibitors, confirmation, biochemical, ADP Hunter fluorescence, primary and confirmatory (AID 624330); format: functional
T5 sequence (Q9H0H5 whole entry): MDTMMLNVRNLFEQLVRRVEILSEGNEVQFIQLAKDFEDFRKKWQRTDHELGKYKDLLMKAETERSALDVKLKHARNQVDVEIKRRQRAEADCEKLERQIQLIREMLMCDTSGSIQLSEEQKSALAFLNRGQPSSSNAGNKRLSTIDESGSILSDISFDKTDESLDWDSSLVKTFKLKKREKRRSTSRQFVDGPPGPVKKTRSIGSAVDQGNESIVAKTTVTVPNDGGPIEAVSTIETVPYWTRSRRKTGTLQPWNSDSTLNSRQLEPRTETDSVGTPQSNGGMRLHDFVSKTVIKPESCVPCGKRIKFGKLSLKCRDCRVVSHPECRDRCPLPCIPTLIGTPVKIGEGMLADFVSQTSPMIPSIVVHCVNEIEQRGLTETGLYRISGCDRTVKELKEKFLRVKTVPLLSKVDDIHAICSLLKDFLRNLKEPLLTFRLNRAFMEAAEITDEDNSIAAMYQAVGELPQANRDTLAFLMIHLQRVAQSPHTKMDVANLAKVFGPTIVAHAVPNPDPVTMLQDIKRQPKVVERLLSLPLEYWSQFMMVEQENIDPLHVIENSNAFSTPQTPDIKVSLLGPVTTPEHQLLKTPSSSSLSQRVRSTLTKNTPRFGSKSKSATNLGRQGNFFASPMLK

COc1ccc(OC)c(S(=O)(=O)N2CCN(c3c(C)cccc3C)CC2)c1
IC50 [1]: > 64 µM (inactive) | AC50 [2]: 20.8 µM (active)

CC(C)c1ccc(-c2nc3ccccc3s2)cc1
EC50 [3]: 4.67 µM (active) | IC50 [4]: 0.478 µM (active) | EC50 [5]: < 0.16 µM (active) | IC50 [6]: > 20 µM (inactive) | EC50 [7]: 0.02 µM (active) | IC50 [8]: 3.21 µM (active) | IC50 [9]: > 20 µM (inactive) | IC50 [10]: 75.6 µM (inactive) | AC50 [11]: 5.31 µM (active) | AC50 [12]: 22.8 µM (active) | AC50 [13]: > 52 µM (inactive) | AC50 [14]: 0.133 µM (active) | AC50 [15]: 7.87 µM (active) | AC50 [16]: < 0.068 µM (active) | AC50 [17]: 34 µM (active)

COc1ccc(NC(=O)CCSc2ccc3ccccc3n2)cc1
IC50 [18]: 4.52 µM (active) | IC50 [19]: > 138 µM (inactive)

COc1cc(C(S)=NCc2ccccc2)cc(Br)c1O
AC50 [20]: 53.6 µM (active)

COc1cccc2c(=O)c3c(cnn3C)n(C)c12
AC50 [21]: 2.16 µM (active)

Cc1cc(OCC(=O)NCCc2ccc(S(N)(=O)=O)cc2)c2c(C)c(C)c(=O)oc2c1
IC50 [22]: 1.1 µM (active)

COc1ccc(CCN2C(=S)N(C)C(=O)C2CC(=O)Nc2ccc(F)cc2)cc1 (stereo unspecified)
IC50 [23]: 6.54 µM (active) | IC50 [24]: 32.7 µM (inactive) | IC50 [25]: 2.69 µM (active)

Cc1csc(NC(=O)c2cn3ccccc3n2)n1
EC50 [26]: 8.32 µM (active) | EC50 [27]: 4.85 µM (active) | AC50 [12]: > 52 µM (inactive) | AC50 [13]: > 52 µM (inactive) | AC50 [14]: 2.16 µM (active) | AC50 [16]: 1.92 µM (active) | AC50 [17]: 47.2 µM (active)

CCOC(=O)c1ccc(NC(S)=NNC(=O)C2(C)CC2(Cl)Cl)cc1 (stereo unspecified)
AC50 [20]: 13.8 µM (active)

CCN1C(=O)C(CC(=O)Nc2ccc(OC)cc2)N(CCc2ccc(OC)cc2)C1=S (stereo unspecified)
IC50 [23]: 13.1 µM (inactive) | IC50 [24]: 52.4 µM (inactive) | IC50 [25]: 5.11 µM (active)

O=C(CC(=O)c1cccs1)c1ccncc1
EC50 [28]: > 67.5 µM (inactive)

CN(C)/C=N/C(=S)Nc1ccc(Cl)cc1
EC50 [28]: > 67.5 µM (inactive)

Cc1noc(C)c1S(=O)(=O)Nc1ccc2c(c1)C(=O)N([C@@H](C)CO)C[C@@H](C)[C@H](CN(C)Cc1ccc(C(F)(F)F)cc1)OCCCC[C@H](C)O2
AbsAC35 [29]: 151.31 µM

Cc1c(O)ccc(/C(Cc2ccc3ccccc3n2)=N\O)c1O
CC50 [30]: 100 µM (active) | IC50 [31]: 62.1 µM (active)
